Measurements published in patent US5643927A, “4-p-fluorobenzoyl-1-piperidinyl-propoxy-chromen-4-one derivatives, their preparation and their use in the treatment of psychosis and schizophrenia” (Ferrer Internacional, S.A., priority 1994, dated 1997).
Counter-ions that a name gives are not always drawn. Like-named read-outs stand apart in the source and are kept apart here.

What was measured:
[1] = biological target: σ receptors (Cavia porcellus, UniProt Q60492); test: biochemical; type: binding
Protocol: (§1) Specific binding to σ, D2, D3, 5H2 and 5HT1a receptors has been tested as follows:
σ receptors: A 2-nM solution of radioactive 3-PPP ((+) [^3 H]3-[3-hydroxyphenyl]-N-(1-propyl)-piperidine), which acts as a specific ligand, was incubated with the membrane corresponding to 40 mg of guinea-pig total brain for 90 min at 25° C. buffered at pH 8.5 with Tris.HCl. Thus, total binding of ligand to membranes was attained. Non-specific binding was then determined by adding a micromolar concentration of unlabelled 3-PPP. […] After the incubation was completed, the samples were filtered through a glass fiber filter and then washed three times with Tris.HCl buffer. The amount of receptor-bound radioactivity was retained on the membrane and determined by liquid scintillation counting.
(§2) Values are expressed as IC50 in molar concentrations.

[2] = biological target: D2 receptors (Rattus norvegicus, UniProt P61169); test: biochemical; type: binding
Protocol: as §1
D2 receptors: A 2-nM solution of radioactive spiperone ([^3 H]spiperone), which acts as a specific ligand, was incubated with the membrane corresponding to 20 mg of rat striatum for 20 min at 35° C. buffered at pH 7.4 with Tris.HCl. The non-specific binding was then determined by addition of a micromolar concentration of unlabelled spiperone. […] After the incubation was completed, the sample was filtered through a glass fiber filter and then washed three times with Tris.HCl buffer. The amount of receptor-bound radioactivity was retained on the membrane and determined by liquid scintillation counting.
as §2

[3] = biological target: T1, D3 receptors (Homo sapiens, UniProt P35462); test: biochemical; type: binding
T1 construct: purchased RBI; host or cells: mouse fibroblasts (CCL 1,3)
Protocol: as §1
D3 receptors: A 0.1 nM solution of radioactive YM-0951 ([^3 H]YM-0951), which acts as a specific ligand, was incubated with the membrane provided by RBI obtained from mouse fibroblasts (CCL 1,3) for 15 min at 37° C., buffered at pH 7.4 with Tris.HCl. […] After the incubation was completed, the sample was filtered through a glass fiber filter and then washed three times with Tris.HCl buffer. The amount of receptor-bound radioactivity was retained on the membrane and determined by liquid scintillation counting.
as §2

[4] = biological target: T2, 5HT1a receptors (Rattus norvegicus, UniProt P19327); test: biochemical; type: binding
T2 sequence (P19327 1-422): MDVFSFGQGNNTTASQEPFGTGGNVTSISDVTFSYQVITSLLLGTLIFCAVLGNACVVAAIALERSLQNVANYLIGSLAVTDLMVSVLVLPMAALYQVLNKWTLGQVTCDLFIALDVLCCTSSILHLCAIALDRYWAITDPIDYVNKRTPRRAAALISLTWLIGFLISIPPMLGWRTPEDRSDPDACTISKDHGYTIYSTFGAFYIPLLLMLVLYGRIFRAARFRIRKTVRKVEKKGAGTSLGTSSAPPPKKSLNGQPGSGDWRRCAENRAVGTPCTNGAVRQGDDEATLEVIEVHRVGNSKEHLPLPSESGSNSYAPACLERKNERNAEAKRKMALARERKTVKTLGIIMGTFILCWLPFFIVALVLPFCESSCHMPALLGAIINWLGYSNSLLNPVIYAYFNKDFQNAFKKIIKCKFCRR
Protocol: as §1
5HT1a receptors: A 1 nM solution of radioactive […], which acts as a specific ligand, was incubated with the membrane corresponding to 1 mg of rat cortex for 20 min at 35° C. buffered at pH 7.4 with Tris.HCl. Non-specific binding was then determined by addition of a 20 micromolar concentration of unlabelled buspirone. […] After the incubation was completed, the sample was filtered through a glass fiber filter and then washed three times with Tris.HCl buffer. The amount of receptor-bound radioactivity was retained on the membrane and determined by liquid scintillation counting.
as §2

[5] = biological target: T3, 5HT2 receptors (Rattus norvegicus, UniProt P14842); test: 5HT2 receptor binding ([3H]ketanserin displacement); conditions: for specificity over 5HT2 receptors versus D2 receptors (in words): D2 /5HT2 ratio; for IC50: [3H]ketanserin 0.5 nM, rat cortex membrane, 30 min, 35° C., pH 7.4
T3 construct: membrane corresponding to 1 mg of rat cortex; from tissue; host or cells: rat cortex membranes
Protocol: as §1
5HT2 receptors: A 0.5 nM solution of radioactive ketanserin ([^3 H]ketanserin), which acts as a specific ligand, was incubated with the membrane corresponding to 1 mg of rat cortex for 30 min at 35° C. buffered at pH 7.4 with Tris.HCl. […] After the incubation was completed, the sample was filtered through a glass fiber filter and then washed three times with Tris.HCl buffer. The amount of receptor-bound radioactivity was retained on the membrane and determined by liquid scintillation counting.
as §2

[6] = system: apomorphine-induced climbing behaviour; test: Test (C): Inhibition of apomorphine-induced climbing behaviour; type: in vivo, Male Swiss mice; conditions: Mus musculus, 1 h; oral, mice; apomorphine 1 mg/kg s.c. after 60 min; climbing assessed after further 60 min
Protocol: One week prior to experiment, animals were kept in our facilities at a temperature of 20°-22° C. and 12/12 h light-dark cycle, and had free access to food and water. Two hours prior to experiment, the animals were placed in individual cages without access to food.
Two additional assessments were performed at 10-min intervals.
The walls of the box were made of translucent methacrylate except one of the lateral surfaces (7.5 cm wide) which was a 3-mm wire mesh. […] If an animal keeps several positions within the 2-min observation, the seconds elapsed in each position will be recorded. Finally, mean scoring was calculated.

[7] = catalepsy in rats after oral administration (extrapyramidal effects); type: in vivo; conditions: rat, in vivo, po
[8] = system: catalepsy; test: as above; type: in vivo; conditions: rats, oral
[9] = animal pharmacological tests (overall statement); conditions: in vivo
[10] = [3H]3-PPP 2 nM, guinea-pig total brain membrane, 90 min, 25° C., pH 8.5, read-out: IC50 (M) σ
[11] = [3H]spiperone 2 nM, rat striatum membrane, 20 min, 35° C., pH 7.4, read-out: IC50 (M) D2
[12] = [3H]YM-0951 0.1 nM, membrane from mouse fibroblasts (CCL 1,3), 15 min, 37° C., pH 7.4, read-out: IC50 (M) D3
[13] = [3H]5-OH-DPAT 1 nM, rat cortex membrane, 20 min, 35° C., pH 7.4, read-out: IC50 (M) 5HT1A

D2 receptors, sequence (P61169 whole entry): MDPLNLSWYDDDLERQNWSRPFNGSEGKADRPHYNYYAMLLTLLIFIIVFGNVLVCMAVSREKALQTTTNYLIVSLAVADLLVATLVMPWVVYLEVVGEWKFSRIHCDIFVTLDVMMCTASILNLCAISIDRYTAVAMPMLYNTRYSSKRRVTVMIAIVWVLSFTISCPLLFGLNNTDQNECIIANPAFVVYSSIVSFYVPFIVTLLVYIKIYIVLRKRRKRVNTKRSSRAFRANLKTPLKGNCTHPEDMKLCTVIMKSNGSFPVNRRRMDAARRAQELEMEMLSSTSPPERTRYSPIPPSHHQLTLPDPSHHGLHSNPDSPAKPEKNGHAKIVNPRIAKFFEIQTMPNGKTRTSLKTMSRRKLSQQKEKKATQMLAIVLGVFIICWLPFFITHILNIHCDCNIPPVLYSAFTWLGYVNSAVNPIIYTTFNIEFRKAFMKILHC
T1 sequence (P35462 whole entry): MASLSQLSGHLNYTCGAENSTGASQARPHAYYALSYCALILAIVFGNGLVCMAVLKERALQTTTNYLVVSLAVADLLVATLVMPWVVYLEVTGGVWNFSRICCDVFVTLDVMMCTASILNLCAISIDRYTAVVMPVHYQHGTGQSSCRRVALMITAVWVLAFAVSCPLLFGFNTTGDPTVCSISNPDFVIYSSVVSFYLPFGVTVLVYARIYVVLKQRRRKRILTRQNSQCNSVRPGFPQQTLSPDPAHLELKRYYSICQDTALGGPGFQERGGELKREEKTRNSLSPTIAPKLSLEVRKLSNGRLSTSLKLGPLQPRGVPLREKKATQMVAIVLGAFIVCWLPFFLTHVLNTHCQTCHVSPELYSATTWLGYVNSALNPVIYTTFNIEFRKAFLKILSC
σ receptors, sequence (Q60492 whole entry): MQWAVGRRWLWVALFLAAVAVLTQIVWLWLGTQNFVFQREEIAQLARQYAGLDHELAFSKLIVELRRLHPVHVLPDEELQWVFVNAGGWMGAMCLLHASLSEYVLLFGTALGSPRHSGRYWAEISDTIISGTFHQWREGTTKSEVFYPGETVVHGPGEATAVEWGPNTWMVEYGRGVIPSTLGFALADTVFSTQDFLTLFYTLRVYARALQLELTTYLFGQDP
T3 sequence (P14842 whole entry): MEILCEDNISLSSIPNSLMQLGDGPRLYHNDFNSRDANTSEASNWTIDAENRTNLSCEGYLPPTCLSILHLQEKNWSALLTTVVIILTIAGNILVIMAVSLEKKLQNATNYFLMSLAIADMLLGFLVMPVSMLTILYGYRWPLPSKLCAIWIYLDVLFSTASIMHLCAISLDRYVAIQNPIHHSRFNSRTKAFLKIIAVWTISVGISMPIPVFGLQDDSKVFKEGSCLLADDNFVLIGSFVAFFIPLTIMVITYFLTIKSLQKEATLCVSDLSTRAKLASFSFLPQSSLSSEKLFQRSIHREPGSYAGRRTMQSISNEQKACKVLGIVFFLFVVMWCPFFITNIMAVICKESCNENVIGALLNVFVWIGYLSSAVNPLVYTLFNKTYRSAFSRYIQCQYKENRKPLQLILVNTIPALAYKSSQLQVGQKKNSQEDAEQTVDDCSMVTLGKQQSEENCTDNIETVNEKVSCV

Compound	IC50 [1, 10] [M]	IC50 [2, 11] [M]	IC50 [3, 12] [M]	IC50 [4, 13] [M]	IC50 [5] [nM]	further results
Cl.O=C(c1ccc(F)cc1)C1CCN(CCCOc2ccc3c(=O)ccoc3c2)CC1 [Example 1, 7-[3-(4-p-fluorobenzoyl-1-piperidinyl)propoxy]chromen-4-one hydrochloride]	1.46e-08	4.36e-07	6.88e-08	1.56e-06	17.1	activity on D3 receptors (in words) ([3]; compared with 7-OH-DPAT): active on D3 receptors in the same order as 7-OH-DPAT; specificity over 5HT2 receptors versus D2 receptors (in words) ([5]; hydrochloride): the most specific over 5HT2 receptors versus D2 receptors; specificity over 5HT2 receptors versus D2 receptors (in words) ([5]; listed as Ex. 1, hydrochloride): surpasses BMY-14802 and risperidone in D2 /5HT2 ratio
Cl.O=C(c1ccc(F)cc1)C1CCN(CCCOc2ccc3c(=O)c(CO)coc3c2)CC1 [Example 4, 3-Hydroxymethyl-7-[3-(4-p-fluorobenzoyl-1-piperidinyl)propoxy]-chromen-4-one hydrochloride]	–	–	–	–	47.4	D2 /5HT2 ([5]; ratio of IC50 D2 to IC50 5HT2): 4.01; ED50 [6]: 3.2 mg/kg; TD50 [7]: 15 mg/kg; extrapyramidal effects (in words) [8]: did not show very important extrapyramidal effects; activity in animal pharmacological tests (in words) [9]: very active in animal pharmacological tests
OC(CCCN1CCN(c2ncc(F)cn2)CC1)c1ccc(F)cc1 (centres unmarked) [BMY-14802, reference compound]	–	1.59e-05	–	–	1150	–
Cc1cc(=O)c2ccc(OCCCN3CCC(C(=O)c4ccc(F)cc4)CC3)cc2o1 [Example 2, 7-[3-(4-p-fluorobenzoyl-1-piperidinyl)propoxy]-2-methyl-chromen-4-one hydrochloride]	7.99e-07	3.74e-07	8.55e-07	1.57e-06	56.6	–
Cc1coc2cc(OCCCN3CCC(C(=O)c4ccc(F)cc4)CC3)ccc2c1=O [Example 3, 7-[3-(4-p-fluorobenzoyl-1-piperidinyl)propoxy]-3-methyl-chromen-4-one hydrochloride]	–	–	–	–	82	IC50 [1]: 2.43e-07 M; IC50 [2]: 1.29e-07 M; IC50 [3]: 1.94e-07 M; IC50 [4]: 7.64e-07 M
